Results reported in publication PMC11743598, “Identification of a binding site for small molecule inhibitors targeting human TRPM4” (Nature Communications, 2025).

Target: T1, HsTRPM4 (Homo sapiens, UniProt Q8TD43)
T1 construct: gene TRPM4; full-length, wild-type codon-optimized gene, C-terminal HA and FLAG tags, pcDNA3.1; patch clamp in transiently transfected cells (TsA-201); cryo-EM from HEK293F, SMA native nanodiscs, C4 symmetry (homotetramer)
Experiment: cryo-EM structure, […] A
Type: binding
Conditions: endogenous lipid assigned from density, three sites per protomer, SMA native nanodiscs

T1 sequence (Q8TD43 whole entry): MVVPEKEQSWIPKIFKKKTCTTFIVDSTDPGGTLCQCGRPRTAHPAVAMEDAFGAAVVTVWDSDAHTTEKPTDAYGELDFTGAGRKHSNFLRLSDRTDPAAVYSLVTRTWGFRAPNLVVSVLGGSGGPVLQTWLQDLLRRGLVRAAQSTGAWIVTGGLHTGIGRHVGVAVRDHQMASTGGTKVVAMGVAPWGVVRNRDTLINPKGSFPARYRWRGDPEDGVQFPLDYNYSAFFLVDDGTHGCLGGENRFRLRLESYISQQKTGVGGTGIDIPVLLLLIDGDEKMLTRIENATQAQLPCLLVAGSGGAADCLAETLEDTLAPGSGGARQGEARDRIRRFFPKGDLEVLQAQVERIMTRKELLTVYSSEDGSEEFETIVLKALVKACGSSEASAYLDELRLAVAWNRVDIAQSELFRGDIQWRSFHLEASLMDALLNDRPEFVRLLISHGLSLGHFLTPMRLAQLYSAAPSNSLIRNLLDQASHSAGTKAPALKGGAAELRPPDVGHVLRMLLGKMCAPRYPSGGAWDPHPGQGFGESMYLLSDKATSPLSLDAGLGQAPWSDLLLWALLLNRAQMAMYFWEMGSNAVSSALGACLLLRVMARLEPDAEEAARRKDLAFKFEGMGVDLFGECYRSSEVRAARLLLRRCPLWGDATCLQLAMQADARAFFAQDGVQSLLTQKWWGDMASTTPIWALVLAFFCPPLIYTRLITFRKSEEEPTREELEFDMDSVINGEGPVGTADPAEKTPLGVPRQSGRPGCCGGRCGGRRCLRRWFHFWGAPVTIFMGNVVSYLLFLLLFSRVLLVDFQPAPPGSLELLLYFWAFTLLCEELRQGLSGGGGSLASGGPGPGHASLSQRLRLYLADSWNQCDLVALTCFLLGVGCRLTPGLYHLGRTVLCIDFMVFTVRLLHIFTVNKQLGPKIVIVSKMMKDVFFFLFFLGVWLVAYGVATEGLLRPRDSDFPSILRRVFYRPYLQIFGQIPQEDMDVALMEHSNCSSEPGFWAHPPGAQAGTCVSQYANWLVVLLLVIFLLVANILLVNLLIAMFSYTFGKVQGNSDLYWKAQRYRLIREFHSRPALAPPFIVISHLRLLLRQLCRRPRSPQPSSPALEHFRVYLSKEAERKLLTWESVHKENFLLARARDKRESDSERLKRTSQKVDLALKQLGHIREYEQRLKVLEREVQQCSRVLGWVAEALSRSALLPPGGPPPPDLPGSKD

Structure (SMILES): CC(C)CCC[C@@H](C)[C@H]1CC[C@H]2[C@@H]3CC=C4C[C@@H](O)CC[C@]4(C)[C@H]3CC[C@]12C [cholesterol]
- cryo-EM structure, 3.67 A: primarily three densities for cholesterol molecules bound to TRPM4 observed
